Assay results reported in BindingDB's records for doi:10.1021/jm100812a (Boehringer Ingelheim Pharma, 2010).

Key:
[1] = molecular target: Activin receptor-like kinase 1, ACVRL1 (Homo sapiens) (UniProt P37023); test: Inhibition of ALK1
[2] = molecular target: T1, TGF-beta receptor type-1 (Homo sapiens, UniProt P36897); test: Inhibition of TGFbeta receptor
T1 sequence (P36897 whole entry): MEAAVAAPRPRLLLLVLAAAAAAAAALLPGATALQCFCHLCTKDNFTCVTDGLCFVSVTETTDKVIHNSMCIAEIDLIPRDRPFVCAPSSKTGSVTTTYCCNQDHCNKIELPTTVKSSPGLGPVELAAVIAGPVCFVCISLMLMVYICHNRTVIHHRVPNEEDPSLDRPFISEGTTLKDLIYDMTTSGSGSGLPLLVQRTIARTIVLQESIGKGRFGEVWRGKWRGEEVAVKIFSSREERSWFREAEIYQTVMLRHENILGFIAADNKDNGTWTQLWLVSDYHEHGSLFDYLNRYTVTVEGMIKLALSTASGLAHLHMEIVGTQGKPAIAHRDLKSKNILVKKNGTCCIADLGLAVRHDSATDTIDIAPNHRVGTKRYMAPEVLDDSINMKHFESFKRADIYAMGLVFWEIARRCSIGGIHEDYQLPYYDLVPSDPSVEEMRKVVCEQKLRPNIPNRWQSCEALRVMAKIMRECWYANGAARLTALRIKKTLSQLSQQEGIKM

[3] = molecular target: Platelet-derived growth factor receptor alpha (Homo sapiens, UniProt P16234); test: Inhibition of PDGFRalpha
[4] = molecular target: T1, TGF-beta receptor type-1; test: Inhibition of TGFbeta receptor in human HaCaT cells assessed as Smad phosphorylation by ELISA

Platelet-derived growth factor receptor alpha, sequence (P16234 whole entry): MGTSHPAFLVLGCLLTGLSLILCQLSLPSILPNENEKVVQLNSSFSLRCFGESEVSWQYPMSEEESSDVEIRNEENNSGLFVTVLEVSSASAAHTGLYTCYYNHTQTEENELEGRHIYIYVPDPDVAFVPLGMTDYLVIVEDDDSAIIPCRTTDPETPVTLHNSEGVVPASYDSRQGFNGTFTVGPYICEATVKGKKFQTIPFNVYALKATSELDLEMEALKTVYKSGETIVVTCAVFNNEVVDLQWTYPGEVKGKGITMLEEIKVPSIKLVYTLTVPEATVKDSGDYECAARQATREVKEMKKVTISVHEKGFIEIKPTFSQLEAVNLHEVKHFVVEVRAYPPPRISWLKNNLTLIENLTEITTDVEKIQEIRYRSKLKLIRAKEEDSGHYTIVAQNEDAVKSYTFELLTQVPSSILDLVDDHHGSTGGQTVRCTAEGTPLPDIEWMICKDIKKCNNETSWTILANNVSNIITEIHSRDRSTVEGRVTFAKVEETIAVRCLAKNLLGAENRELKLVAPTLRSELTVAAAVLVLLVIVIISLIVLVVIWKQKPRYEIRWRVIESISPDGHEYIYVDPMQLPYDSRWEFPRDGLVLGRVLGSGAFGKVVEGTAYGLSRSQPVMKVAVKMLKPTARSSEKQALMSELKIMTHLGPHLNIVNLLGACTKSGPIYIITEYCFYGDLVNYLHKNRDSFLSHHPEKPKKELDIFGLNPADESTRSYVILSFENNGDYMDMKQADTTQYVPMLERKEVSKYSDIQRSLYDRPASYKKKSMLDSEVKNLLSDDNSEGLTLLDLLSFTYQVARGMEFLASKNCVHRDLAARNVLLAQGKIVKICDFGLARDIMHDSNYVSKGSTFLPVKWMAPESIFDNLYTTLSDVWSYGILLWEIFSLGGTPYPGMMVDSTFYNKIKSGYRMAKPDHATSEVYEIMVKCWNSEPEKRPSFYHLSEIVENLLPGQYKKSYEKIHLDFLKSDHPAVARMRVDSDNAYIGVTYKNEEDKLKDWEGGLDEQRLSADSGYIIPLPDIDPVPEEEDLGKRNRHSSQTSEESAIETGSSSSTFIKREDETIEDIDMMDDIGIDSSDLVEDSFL
Activin receptor-like kinase 1, ACVRL1 (Homo sapiens), sequence (P37023 whole entry, looked up): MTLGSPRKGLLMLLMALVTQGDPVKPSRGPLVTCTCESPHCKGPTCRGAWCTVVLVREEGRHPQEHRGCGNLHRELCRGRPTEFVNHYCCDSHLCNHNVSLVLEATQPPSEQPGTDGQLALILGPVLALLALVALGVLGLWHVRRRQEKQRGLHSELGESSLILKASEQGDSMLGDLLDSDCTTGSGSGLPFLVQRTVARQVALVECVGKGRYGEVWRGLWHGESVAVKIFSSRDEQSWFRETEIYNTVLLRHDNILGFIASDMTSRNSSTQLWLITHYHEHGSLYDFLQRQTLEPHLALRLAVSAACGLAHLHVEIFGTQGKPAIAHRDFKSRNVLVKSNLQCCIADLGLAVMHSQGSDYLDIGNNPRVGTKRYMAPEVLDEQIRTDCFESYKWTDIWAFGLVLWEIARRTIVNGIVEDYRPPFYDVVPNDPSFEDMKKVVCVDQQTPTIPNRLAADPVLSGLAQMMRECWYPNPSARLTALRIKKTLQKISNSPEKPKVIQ

IC50 [1] [µM]	IC50 [2] [µM]	IC50 [3] [µM]	EC50 [4] [µM]	SMILES
4	–	–	–	CCN(C)C(=O)c1ccc2c(c1)NC(=O)/C2=C(\Nc1ccc(CN2CCCCC2)cc1)c1ccccc1
–	> 50	> 5	> 10	CCN(C)C(=O)c1ccc2c(c1)NC(=O)C2C(=NC1CCN(C)CC1)c1ccccc1 (configuration not stated) [(Z)-N-ethyl-N-methyl-3-((1-methylpiperidin-4-ylamino)(phenyl)methylene)-2-oxoindoline-6-carboxamide]
–	> 50	> 5	> 10	CCN(C)C(=O)c1ccc2c(c1)NC(=O)C2C(=NC1CCCCC1)c1ccccc1 (configuration not stated) [(Z)-3-((cyclohexylamino)(phenyl)methylene)-N-ethyl-N-methyl-2-oxoindoline-6-carboxamide]
